Experimental data reported in patent US11471451B2, “Uses of crenolanib” (Arog Pharmaceuticals, Inc., priority 2019, dated 2022).

Experiments:
Format in all cases: in vivo, human
[1] = system: FLT3 Variants, FLT3 Activating Mutations, and Co-Occurring Mutations; test: Example 1: single cell DNA sequencing (TAPESTRI) of longitudinal bone marrow samples; details: for Variant allele frequency FLT3 D835E: D1 0%; for Variant allele frequency DNMT3A R882H / Variant allele frequency FLT3 D839G / Variant allele frequency KRAS G12D / Variant allele frequency NRAS G13V: D1 1%; for Variant allele frequency FLT3 N841K: D1 18%; for Variant allele frequency FLT3 A680V: D1 20%; for Variant allele frequency FLT3 ITD: D1 22%; for Variant allele frequency DNMT3A R882C: D1 41%; for Variant allele frequency NPM1 dupTCTG: D1 44%
Protocol: In one aspect of the invention pertains to single cell sequencing analysis of recurrent AML genetic mutations that is performed using the […]™ platform. To use said platform, a cell suspension is introduced onto the platform using microfluidics, and each cell is then encapsulated in an oil droplet along with a protease to aid in DNA isolation. Cells are then lysed and loaded back onto the […]™ platform, where each single nucleus is encapsulated with a unique DNA based barcode linked to acrylamide-based beads and PCR master mix and primer sets against recurrent AML mutant genes in an oil droplet. These droplets are directly deposited in PCR tubes and exposed to UV light to release the barcodes. Subsequently the barcoded genomic DNA within the droplets can be amplified according to standard PCR amplification techniques. In this same aspect the PCR products are then isolated using standard molecular biology techniques and then libraries prepared for next-generation sequencing compatible with Illumina platforms (including MiSeq, HiSeq, and NovaSeq), followed by sequencing said libraries on one of the validated Illumina platforms (including MiSeq, HiSeq, and NovaSeq). In the same aspect, the sequencing contains at least 1,000,000 reads per sample, and the allele dropout out rate is at most 10%. Next-generation sequencing data can be analyzed at least one of but not limited to using […] Pipeline to generate genetic variant calls followed by […] Insight for final analysis including determining co-occurring genetic mutations, or standard next generation sequencing (NGS) analysis methods known to one skilled in the art.
The present invention includes the follow method of preparing single cell DNA sequencing. One example is a single-cell multi-omic assay for detecting single nucleotide variants, copy number variants, and protein changes simultaneously from the same cell, such as […]™. Mononuclear cells were isolated from bone marrow samples via FICOLL-PAQUE® gradient, resuspended in a 10% DMSO solution and frozen at −20° C. until needed. Single cell suspensions were prepared from thawed mononuclear cell samples to final concentrations indicated by the manufacturer's instructions, then loaded onto the […]™ instrument. According to the manufacturer, the […]™ platform uses microfluidics to separate single cells, encapsulate each cell within a […] droplet, proteases are added to each droplet to aid in DNA isolation. Cell encapsulation, targeted PCR, and next generation library preparation were performed per the […]™ platform's manufacturer's instructions using the […]™ platform and the Thermo Fisher SimpliAmp thermal cycler (cat #A24811, or equivalent). The prepared single-cell DNA library was sequenced using Illumina's MiSeq instrument, per the manufacturer's instructions. Analysis of these next-generation sequencing data was performed by first processing the sequencing data using the […] Pipeline (available on the Mission Bio website) to ultimately generate variant calls. The resultant loom files are then imported into the […]™ bioinformatics software, Insight, which is used to identify relevant variants, including co-occurring and rare mutations.
Longitudinal bone marrow samples obtained throughout the course of treatment were analyzed using single cell sequencing. […]

[2] = system: AML with FLT3-ITD, FLT3-I836del, FLT3-N841I, FLT3-V491L, FLT3-V592A mutations; test: Example 7: newly diagnosed AML patient with multiple FLT3 mutations; crenolanib besylate with standard chemotherapy
Protocol: A person was diagnosed with AML in 2016. Their diagnostic bone marrow aspirate was sent for NGS of cancer associated genes. […] To treat this patient's disease and overcome the FLT3 mutations, this patient was provided oral crenolanib besylate in combination with standard chemotherapy on a clinical trial for newly diagnosed AML patients with activating FLT3 mutations. […] The patient was treated with induction chemotherapy, comprised of seven days of cytarabine and three days of idarubicin, followed by 100 mg of crenolanib besylate three times daily starting on day 10 of treatment.
(§1) In an effort to maintain remission, the patient was then administered four cycles of high dose cytarabine consolidation chemotherapy. In each cycle, the patient received cytarabine chemotherapy at standard doses, followed by oral crenolanib besylate at 100 mg three times daily starting 48 hours after the last dose of chemotherapy and continuing until 72 hours before the start of the next cycle of chemotherapy. Due to the aggressive nature of FLT3 mutated AML, the patient continued to receive single agent crenolanib besylate therapy at 100 mg three times daily for 21 months, known as maintenance.

FLT3 mutated AML = test: Example 1: newly diagnosed AML patient with activating FLT3 mutations; crenolanib besylate with induction and consolidation chemotherapy, then single agent maintenance; bone marrow biopsy
Protocol: A person was diagnosed with AML with monocytic differentiation in 2016. […] To treat this patient's disease and overcome the FLT3 mutations, this patient was provided oral crenolanib besylate in combination with standard chemotherapy on a clinical trial for newly diagnosed AML patients with activating FLT3 mutations. The patient was treated with induction chemotherapy, comprised of seven days of cytarabine and three days of daunorubicin, followed by 100 mg of crenolanib besylate three times daily starting on day 10 of treatment.
as §1, with “of chemotherapy. […] Due to” for “of chemotherapy. Due to”, “daily for 12 months, known” for “daily for 21 months, known”

[3] = Consolidation (D237), HiDAC + crenolanib
[4] = Induction (D53), induction chemotherapy + crenolanib
[5] = Maintenance (D294), single agent crenolanib besylate
[6] = Maintenance (D406), completion of single agent maintenance

CC1(COc2ccc3c(c2)ncn3-c2ccc3cccc(N4CCC(N)CC4)c3n2)COC1 [crenolanib, 4-Piperidinamine, 1-[2-[5-[(3-methyl-3-oxetanyl)methoxy]-1H-benzimidazol-1-yl]-8-quinolinyl]]
Variant allele frequency FLT3 D835E [1, 3]: 0% | Variant allele frequency DNMT3A R882H [1, 3]: 1% | Variant allele frequency FLT3 D839G [1, 3]: 1% | Variant allele frequency KRAS G12D [1, 3]: 1% | Variant allele frequency NRAS G13V [1, 3]: 0% | Variant allele frequency FLT3 N841K [1, 3]: 0% | Variant allele frequency FLT3 A680V [1, 3]: 1% | Variant allele frequency FLT3 ITD [1, 3]: 0% | Variant allele frequency DNMT3A R882C [1, 3]: 5% | Variant allele frequency NPM1 dupTCTG [1, 3]: 0% | Variant allele frequency FLT3 D835E [1, 4]: 1% | Variant allele frequency DNMT3A R882H [1, 4]: 3% | Variant allele frequency FLT3 D839G [1, 4]: 3% | Variant allele frequency KRAS G12D [1, 4]: 0% | Variant allele frequency NRAS G13V [1, 4]: 0% | Variant allele frequency FLT3 N841K [1, 4]: 0% | Variant allele frequency FLT3 A680V [1, 4]: 0% | Variant allele frequency FLT3 ITD [1, 4]: 3% | Variant allele frequency DNMT3A R882C [1, 4]: 0% | Variant allele frequency NPM1 dupTCTG [1, 4]: 4% | Variant allele frequency FLT3 D835E [1, 5]: 0% | Variant allele frequency DNMT3A R882H [1, 5]: 0% | Variant allele frequency FLT3 D839G [1, 5]: 0% | Variant allele frequency KRAS G12D [1, 5]: 0% | Variant allele frequency NRAS G13V [1, 5]: 0% | Variant allele frequency FLT3 N841K [1, 5]: 0% | Variant allele frequency FLT3 A680V [1, 5]: 0% | Variant allele frequency FLT3 ITD [1, 5]: 0% | Variant allele frequency DNMT3A R882C [1, 5]: 6% | Variant allele frequency NPM1 dupTCTG [1, 5]: 0% | Variant allele frequency FLT3 D835E [1, 6]: 0% | Variant allele frequency DNMT3A R882H [1, 6]: 0% | Variant allele frequency FLT3 D839G [1, 6]: 0% | Variant allele frequency KRAS G12D [1, 6]: 0% | Variant allele frequency NRAS G13V [1, 6]: 0% | Variant allele frequency FLT3 N841K [1, 6]: 0% | Variant allele frequency FLT3 A680V [1, 6]: 0% | Variant allele frequency FLT3 ITD [1, 6]: 0% | Variant allele frequency DNMT3A R882C [1, 6]: 8% | Variant allele frequency NPM1 dupTCTG [1, 6]: 0% | remaining FLT3 and KRAS mutations ([1]; after approximately two months of single agent maintenance therapy): cleared | remaining FLT3 and KRAS mutations ([1]; at the completion of maintenance therapy): remained absent | all variant FLT3 clones ([1]; by day 79 into maintenance): cleared | mutant containing cancer cell populations (FIGS. 2-4 scatter plots) ([1]; diagnosis versus 35 days following the start of induction): eliminated the vast majority | NPM1 and FLT3-ITD ([1]; following consolidation): clearance | variant FLT3 and FLT3 activating mutations (FIG. 1) ([1]; induction chemotherapy with crenolanib, HiDAC consolidation with crenolanib, single agent crenolanib maintenance): eliminated | FLT3-ITD and FLT3-I836del by molecular testing ([2]; day 27): could not find | response ([2]; day 27, crenolanib combination therapy): complete morphologic remission | bone marrow blasts ([2]; person, baseline 95%, day 27, cytarabine 7 days + idarubicin 3 days, then 100 mg crenolanib besylate three times daily from day 10): 2% | response (FLT3 mutated AML; day 35, after induction chemotherapy with crenolanib): morphologic complete remission | remission status (FLT3 mutated AML; day 237, after four cycles of high dose cytarabine consolidation with crenolanib besylate 100 mg three times daily): remained in morphologic remission | remission status (FLT3 mutated AML; day 406, completion of single agent crenolanib besylate maintenance, 100 mg three times daily): remained in morphologic remission | bone marrow blasts (FLT3 mutated AML; person, 63% at presentation, day 35, cytarabine 7 days + daunorubicin 3 days, then 100 mg crenolanib besylate three times daily from day 10): less than 5%
